This passage reports IC50 results from US9624224B2, “Inhibitors of Bruton's tyrosine kinase” (Pharmacyclics LLC, priority 2013, dated 2017).

The term IC50 denotes the concentration that inhibits the measured activity by half.

Some results are limits rather than exact numbers.

Format in all cases: biochemical
Assay [1] has as its target Lck (Homo sapiens, UniProt P06239). The assay is described as follows: Lck kinase inhibition (in vitro kinase assay). The procedure: (§1) Btk kinase activity is determined using a time-resolved fluorescence resonance energy transfer (TR-FRET) methodology. Measurements are performed in a reaction volume of 50 μL using 96-well assay plates. […] The reaction is quenched by the addition of 1.2 equivalents of EDTA (relative to divalent cation) in 25 μL of 1× Lance buffer (Perkin-Elmer). Streptavidin-APC (Perkin-Elmer) and Eu-labeled p-Tyr100 antibody (Perkin-Elmer) in 1× Lance buffer are added in a 25 μL volume to give final concentrations of 100 nM and 2.5 nM, respectively, and the mixture is allowed to incubate for one hour. The TR-FRET signal is measured on a multimode plate reader with an excitation wavelength (λEx) of 330 nm and detection wavelengths (λEm) of 615 and 665 nm. Activity is determined by the ratio of the fluorescence at 665 nm to that at 615 nm. For each compound, enzyme activity is measured at various concentrations of compound. Negative control reactions are performed in the absence of inhibitor in replicates of six, and two no-enzyme controls are used to determine baseline fluorescence levels. Inhibition constants, Ki(app), ware obtained using the program BatchKi (Kuzmic et al. (2000), Anal. Biochem. 286:45-50). IC50s are obtained according to the equation: IC50={Ki(app)/(1+[ATP]/Km^ATP)}+[E]total/2;
(§2) For all kinases, [ATP]=Km^ATP, [Btk]total=0.5 nM and [Lck]total=6 nM.

Assay [2] concerns the target T1, BTK (Homo sapiens, UniProt Q06187).
T1 construct: purified from insect cells as a full-length construct containing a N-terminal 6×-His tag; His6 (N); made in house; host or cells: insect cells (baculovirus, Sf21)
As to the kind of experiment: Btk in vitro inhibitory activity (TR-FRET, mobility shift or radiometric filter binding kinase assay). Conditions: determined using one of the methods outlined in Example 47a, 47b, and 47c. How it is done:
as §1, §2
Kinase activity is measured in vitro using electrophoretic mobility shift assay. The kinase reactions are assembled in a total volume of 25 μL in 384 well plates. […] The reaction is incubated for one hour and is quenched by the addition of 45 μL of termination buffer (100 mM HEPES, pH7.5, 0.01% Triton X-100, 30 mM EDTA). The terminated reactions are analyzed using 12 channel LabChip® 3000 microfluidic detection instrument (Caliper Life Sciences). The enzymatic phosphorylation of the peptide results in a change in net charge, enabling electrophoretic separation of product from substrate peptide. As substrate and product peptides are separated, two peaks of fluorescence are observed. Change in the relative fluorescence intensity of the substrate and product peaks is the parameter measured, reflecting enzyme activity. In the presence of an inhibitor, the ratio between product and substrate is altered: the signal of the product decreases, while the signal of the substrate increases.
Activity in each sample is determined as the product to sum ratio (PSR): P/(S+P), where P is the peak height of the product peptide and S is the peak height of the substrate peptide. For each compound, enzyme activity is measured at various concentrations (12 concentrations of compound spaced by 3× dilution intervals). Negative control samples (0%-inhibition in the absence of inhibitor) and positive control samples (100%-inhibition, in the presence of 20 mM EDTA) are assembled in replicates of four and are used to calculate %-inhibition values for each inhibitor at each concentration. Percent inhibition (Pinh) is determined using following equation: Pinh=(PSR0%−PSRinh)/(PSR0%−PSR100%)*100,
where PSRmh is the product sum ratio in the presence of inhibitor, PSR0% is the average product sum ration in the absence of inhibitor and PSR100% is the average product sum ratio in 100%-inhibition control samples;
The IC50 values of inhibitors are determined by 4 parameter sigmoidal dose-response model fitting of the inhibition curves (Pinh versus inhibitor concentration) using XLfit 4 software.
Human Btk kinase (Genbank accession # NP_000052) was purified from insect cells as a full-length construct containing a N-terminal 6×-His tag. Btk kinase activity was determined using a radiometric filter binding assay. Measurements are performed in a low μL reaction volume 384-well assay plates. […]
For orientation: Time-resolved FRET reads energy transfer from a long-lived donor to a nearby acceptor.

The target in assay [3] is EGFR (Homo sapiens, UniProt P00533). The assay is described as follows: EGFR kinase inhibition (in vitro kinase assay).
Sequence of EGFR (P00533 25-1210, species assumed): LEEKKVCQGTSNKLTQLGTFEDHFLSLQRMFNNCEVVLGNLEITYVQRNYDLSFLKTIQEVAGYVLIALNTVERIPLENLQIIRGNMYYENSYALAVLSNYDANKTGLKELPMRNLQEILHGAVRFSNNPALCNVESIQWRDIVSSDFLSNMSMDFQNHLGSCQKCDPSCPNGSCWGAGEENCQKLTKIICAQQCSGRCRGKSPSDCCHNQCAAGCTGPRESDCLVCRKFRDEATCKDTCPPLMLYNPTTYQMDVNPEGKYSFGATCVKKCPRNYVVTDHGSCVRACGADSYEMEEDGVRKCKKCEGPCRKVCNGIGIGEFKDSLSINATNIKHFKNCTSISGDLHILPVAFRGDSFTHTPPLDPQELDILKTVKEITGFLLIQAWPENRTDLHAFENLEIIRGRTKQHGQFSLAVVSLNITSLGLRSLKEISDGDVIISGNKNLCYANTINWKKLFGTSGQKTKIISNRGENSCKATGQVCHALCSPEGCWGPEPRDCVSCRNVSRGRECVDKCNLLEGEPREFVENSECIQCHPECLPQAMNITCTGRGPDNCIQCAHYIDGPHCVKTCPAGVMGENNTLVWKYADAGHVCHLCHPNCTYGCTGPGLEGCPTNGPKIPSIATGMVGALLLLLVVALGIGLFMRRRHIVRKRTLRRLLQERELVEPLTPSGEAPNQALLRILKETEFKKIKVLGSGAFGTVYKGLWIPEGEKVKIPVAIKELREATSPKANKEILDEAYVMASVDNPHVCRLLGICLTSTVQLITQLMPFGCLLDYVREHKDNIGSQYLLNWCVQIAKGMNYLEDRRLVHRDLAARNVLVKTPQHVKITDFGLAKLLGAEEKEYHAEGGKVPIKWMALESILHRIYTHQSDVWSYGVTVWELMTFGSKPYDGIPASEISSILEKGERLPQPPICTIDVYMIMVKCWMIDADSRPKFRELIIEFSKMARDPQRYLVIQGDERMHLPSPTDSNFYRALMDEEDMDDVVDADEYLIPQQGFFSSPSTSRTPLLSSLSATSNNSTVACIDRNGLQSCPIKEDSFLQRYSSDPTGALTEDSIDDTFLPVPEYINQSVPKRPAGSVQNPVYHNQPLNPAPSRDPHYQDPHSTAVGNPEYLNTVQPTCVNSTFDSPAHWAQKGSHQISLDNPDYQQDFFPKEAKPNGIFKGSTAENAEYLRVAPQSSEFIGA

T1 sequence (Q06187 whole entry): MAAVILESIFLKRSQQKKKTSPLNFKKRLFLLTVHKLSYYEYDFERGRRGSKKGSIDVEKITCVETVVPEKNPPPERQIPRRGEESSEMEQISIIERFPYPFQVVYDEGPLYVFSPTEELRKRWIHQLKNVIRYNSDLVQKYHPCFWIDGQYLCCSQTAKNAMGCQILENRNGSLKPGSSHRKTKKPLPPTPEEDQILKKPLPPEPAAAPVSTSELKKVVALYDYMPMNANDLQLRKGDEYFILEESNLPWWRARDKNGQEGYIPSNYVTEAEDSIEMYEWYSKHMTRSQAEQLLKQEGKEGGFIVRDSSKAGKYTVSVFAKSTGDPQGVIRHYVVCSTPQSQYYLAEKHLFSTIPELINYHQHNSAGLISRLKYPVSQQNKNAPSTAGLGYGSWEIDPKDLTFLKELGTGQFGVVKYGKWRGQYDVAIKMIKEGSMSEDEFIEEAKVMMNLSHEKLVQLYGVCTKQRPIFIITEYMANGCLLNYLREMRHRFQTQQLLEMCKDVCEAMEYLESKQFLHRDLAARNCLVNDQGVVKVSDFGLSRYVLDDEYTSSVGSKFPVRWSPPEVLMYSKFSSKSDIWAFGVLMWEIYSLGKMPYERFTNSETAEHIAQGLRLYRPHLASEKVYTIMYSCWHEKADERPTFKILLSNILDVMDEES
Sequence of Lck (P06239 whole entry, species assumed): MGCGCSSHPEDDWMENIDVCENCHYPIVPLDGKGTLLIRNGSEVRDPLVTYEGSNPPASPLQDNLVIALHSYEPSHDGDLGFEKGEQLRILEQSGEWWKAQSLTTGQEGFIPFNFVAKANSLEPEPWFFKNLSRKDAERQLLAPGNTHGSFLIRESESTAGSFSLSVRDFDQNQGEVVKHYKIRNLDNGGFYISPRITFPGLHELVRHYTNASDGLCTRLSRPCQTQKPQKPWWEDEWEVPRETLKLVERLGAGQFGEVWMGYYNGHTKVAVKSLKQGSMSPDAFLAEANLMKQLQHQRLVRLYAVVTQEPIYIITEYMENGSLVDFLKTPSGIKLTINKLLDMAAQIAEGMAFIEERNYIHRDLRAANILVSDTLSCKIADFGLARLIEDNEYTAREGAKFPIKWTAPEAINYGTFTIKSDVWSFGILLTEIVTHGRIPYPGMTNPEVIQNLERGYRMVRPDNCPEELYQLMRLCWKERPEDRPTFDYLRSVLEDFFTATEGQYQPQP

Turning to `CC(C)c1ccnc(NC(=O)c2ccc(-c3nn([C@@H]4CCN(C(=O)/C=C/CN(C)C)C4)c4ncnc(N)c34)cc2)c1` [Example 31, (R,E)-4-(4-amino-1-(1-(4-(dimethylamino)but-2-enoyl)pyrrolidin-3-yl)-1H-pyrazolo[3,4-d]pyrimidin-3-yl)-N-(4-isopropylpyridin-2-yl)benzamide], the values for the IC50 in assay [1], in assay [2] and in assay [3] were under 0.1 µM, under 0.001 µM and 0.1 to 1 µM, respectively.
Turning to `CN(C/C=C/C(=O)N1CC[C@@H](n2nc(-c3ccc(C(=O)Nc4ccccn4)cc3)c3c(N)ncnc32)C1)C1CC1` [Example 15, (R,E)-4-(4-amino-1-(1-(4-(cyclopropyl(methyl)amino)but-2-enoyl)pyrrolidin-3-yl)-1H-pyrazolo[3,4-d]pyrimidin-3-yl)-N-(pyridin-2-yl)benzamide], the IC50 in assay [1] was 1 to 10 µM; in assay [2], under 0.1 µM; in assay [3], 0.1 to 1 µM.
On the same counts, the results for `COc1cc(-c2nn([C@@H]3CCN(C(=O)/C=C/CN(C)C4CC4)C3)c3ncnc(N)c23)ccc1C(=O)Nc1cc(C)ccn1` [Example 5, (R,E)-4-(4-amino-1-(1-(4-(cyclopropyl(methyl)amino)but-2-enoyl)pyrrolidin-3-yl)-1H-pyrazolo[3,4-d]pyrimidin-3-yl)-2-methoxy-N-(4-methylpyridin-2-yl)benzamide] are 1 to 10 µM, under 0.1 µM and 1 to 10 µM.
The corresponding values for `CN(C/C=C/C(=O)N1CC[C@@H](n2nc(-c3ccc(C(=O)Nc4cc(C(F)(F)F)ccn4)cc3)c3c(N)ncnc32)C1)C1CC1` [Example 2, (R,E)-4-(4-Amino-1-(1-(4-(cyclopropyl(methyl)amino)but-2-enoyl)pyrrolidin-3-yl)-1H-pyrazolo[3,4-d]pyrimidin-3-yl)-N-(4-(trifluoromethyl)pyridin-2-yl)benzamide] are 0.1 to 1 µM, under 0.001 µM and 0.1 to 1 µM.
On the same counts, the results for `CCCc1cnc(NC(=O)c2ccc(-c3nn([C@@H]4CCN(C(=O)/C=C/CN(C)C5CC5)C4)c4ncnc(N)c34)cc2)s1` [Example 10, (R,E)-4-(4-amino-1-(1-(4-(cyclopropyl(methyl)amino)but-2-enoyl)pyrrolidin-3-yl)-1H-pyrazolo[3,4-d]pyrimidin-3-yl)-N-(5-propylthiazol-2-yl)benzamide] are under 0.1 µM, under 0.001 µM and 0.1 to 1 µM.
For `CC(C)c1cnc(NC(=O)c2ccc(-c3nn([C@@H]4CCN(C(=O)/C=C/CN(C)C5CC5)C4)c4ncnc(N)c34)cc2)s1` [Example 8, (R,E)-4-(4-amino-1-(1-(4-(cyclopropyl(methyl)amino)but-2-enoyl)pyrrolidin-3-yl)-1H-pyrazolo[3,4-d]pyrimidin-3-yl)-N-(5-isopropylthiazol-2-yl)benzamide], the IC50 was under 0.1 µM in assay [1], under 0.1 µM in assay [2] and 0.1 to 1 µM in assay [3].
With `CN(C)C/C=C/C(=O)N1CC[C@@H](n2nc(-c3ccc(C(=O)Nc4ccccn4)cc3)c3c(N)ncnc32)C1` [Example 30, (R,E)-4-(4-amino-1-(1-(4-(dimethylamino)but-2-enoyl)pyrrolidin-3-yl)-1H-pyrazolo[3,4-d]pyrimidin-3-yl)-N-(pyridin-2-yl)benzamide], the half-maximal inhibitory concentration (IC50) in assay [1] was 0.1 to 1 µM; in assay [2], under 0.001 µM; in assay [3] it was 0.1 to 1 µM.
The compound `CN(C/C=C/C(=O)N1CC[C@@H](n2nc(-c3ccc(C(=O)Nc4ccccn4)cc3)c3c(N)ncnc32)C1)C1CC1` [Example 46, (R,E)-4-(4-amino-1-(1-(4-(cyclopropyl(methyl)amino)but-2-enoyl)pyrrolidin-3-yl)-1H-pyrazolo[3,4-d]pyrimidin-3-yl)-N-(pyridin-2-yl)benzamide] displayed a half-inhibitory concentration (IC50) in assay [1] of 0.1 to 1 µM.
Consider `Cc1ccnc(NC(=O)c2ccc(-c3nn([C@@H]4CCN(C(=O)/C=C/CN(C)C5CC5)C4)c4ncnc(N)c34)cc2)c1` [Example 1, (R,E)-4-(4-amino-1-(1-(4-(cyclopropyl(methyl)amino)but-2-enoyl)pyrrolidin-3-yl)-1H-pyrazolo[3,4-d]pyrimidin-3-yl)-N-(4-methylpyridin-2-yl)benzamide], for which the IC50 in assay [1] is 0.1 to 1 µM; in assay [2], under 0.001 µM; in assay [3], 1 to 10 µM.
The corresponding values for `CN(C/C=C/C(=O)N1CC[C@@H](n2nc(-c3ccc(C(=O)Nc4cc(C#N)ccn4)cc3)c3c(N)ncnc32)C1)C1CC1` [Example 16, (R,E)-4-(4-amino-1-(1-(4-(cyclopropyl(methyl)amino)but-2-enoyl)pyrrolidin-3-yl)-1H-pyrazolo[3,4-d]pyrimidin-3-yl)-N-(4-cyanopyridin-2-yl)benzamide] are 0.1 to 1 µM, under 0.1 µM and 1 to 10 µM.
On the same counts, the results for `CCc1ccnc(NC(=O)c2ccc(-c3nn([C@@H]4CCN(C(=O)/C=C/CN(C)C5CC5)C4)c4ncnc(N)c34)cc2)c1` [Example 4, (R,E)-4-(4-amino-1-(1-(4-(cyclopropyl(methyl)amino)but-2-enoyl)pyrrolidin-3-yl)-1H-pyrazolo[3,4-d]pyrimidin-3-yl)-N-(4-ethylpyridin-2-yl)benzamide] are 0.1 to 1 µM, under 0.001 µM and 1 to 10 µM.
In the case of `Cc1cnc(NC(=O)c2ccc(-c3nn([C@@H]4CCN(C(=O)/C=C/CN(C)C5CC5)C4)c4ncnc(N)c34)cc2)s1` [Example 6, (R,E)-4-(4-amino-1-(1-(4-(cyclopropyl(methyl)amino)but-2-enoyl)pyrrolidin-3-yl)-1H-pyrazolo[3,4-d]pyrimidin-3-yl)-N-(5-methylthiazol-2-yl)benzamide], the IC50 in assay [1] was 0.1 to 1 µM; in assay [2], under 0.1 µM; in assay [3], 1 to 10 µM.
On the same counts, the results for `CN(C)C/C=C/C(=O)N1CC[C@@H](n2nc(-c3ccc(C(=O)Nc4cc(C#N)ccn4)cc3)c3c(N)ncnc32)C1` [Example 32, (R,E)-4-(4-amino-1-(1-(4-(dimethylamino)but-2-enoyl)pyrrolidin-3-yl)-1H-pyrazolo[3,4-d]pyrimidin-3-yl)-N-(4-cyanopyridin-2-yl)benzamide] are 0.1 to 1 µM, under 0.001 µM and 0.1 to 1 µM.
With `Cc1ccnc(NC(=O)c2ccc(-c3nn([C@@H]4CCCN(C(=O)/C=C/CN(C)C)C4)c4ncnc(N)c34)cc2)c1` [Example 41, (R,E)-4-(4-amino-1-(1-(4-(dimethylamino)but-2-enoyl)piperidin-3-yl)-1H-pyrazolo[3,4-d]pyrimidin-3-yl)-N-(4-methylpyridin-2-yl)benzamide], the IC50 in assay [2] is under 0.001 µM.
Same read-out and setting: under `CC(C)c1ccnc(NC(=O)c2ccc(-c3nn([C@@H]4CCCN(C(=O)/C=C/CN(C)C)C4)c4ncnc(N)c34)cc2)c1` [Example 44, (R,E)-4-(4-amino-1-(1-(4-(dimethylamino)but-2-enoyl)piperidin-3-yl)-1H-pyrazolo[3,4-d]pyrimidin-3-yl)-N-(4-isopropylpyridin-2-yl)benzamide] stands under 0.001 µM; under `CCCc1ccnc(NC(=O)c2ccc(-c3nn([C@@H]4CCN(C(=O)/C=C/CN(C)C)C4)c4ncnc(N)c34)cc2)c1` [Example 33, (R,E)-4-(4-amino-1-(1-(4-(dimethylamino)but-2-enoyl)pyrrolidin-3-yl)-1H-pyrazolo[3,4-d]pyrimidin-3-yl)-N-(4-propylpyridin-2-yl)benzamide], under 0.001 µM.
